Patent US20260217735A1, “HETEROCYCLES AND USES THEREOF” (Kumquat Biosciences Inc., priority 2023, published 2026)

Legend:
KRAS G12D = molecular target: T1, KRAS G12D (Homo sapiens, UniProt P01116, G12D); assay: HTRF assay, KRAS G12D interaction with SOS1; type: biochemical; conditions: bins <500 nM / 500 nM to 1000 nM, read-out: Inhibition of KRAS G12D (IC50)
T1 construct: made in house; host or cells: E. coli, e.g. BL21 (DE3)

KRAS WT = molecular target: T2, KRAS WT (Homo sapiens, UniProt P01116); assay: HTRF assay, wildtype KRAS interaction with SOS1; type: biochemical; conditions: bins <500 nM / 500 nM to 1000 nM, read-out: Inhibition of KRAS WT (IC50)
T2 construct: made in house; host or cells: E. coli, e.g. BL21 (DE3)
T2 sequence (P01116 1-188 isoform P01116-2): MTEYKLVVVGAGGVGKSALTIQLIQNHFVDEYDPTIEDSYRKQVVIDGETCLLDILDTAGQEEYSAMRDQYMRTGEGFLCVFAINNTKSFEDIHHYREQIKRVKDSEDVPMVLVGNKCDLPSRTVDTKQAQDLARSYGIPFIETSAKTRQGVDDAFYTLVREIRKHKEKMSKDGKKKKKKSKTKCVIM

KRAS G12V = molecular target: T3, KRAS G12V (Homo sapiens, UniProt P01116, G12V); assay: HTRF assay, KRAS G12V interaction with SOS1; type: biochemical; conditions: bins <500 nM / 500 nM to 1000 nM, read-out: Inhibition of KRAS G12V (IC50)
T3 construct: made in house; host or cells: E. coli, e.g. BL21 (DE3)
T3 sequence (P01116 1-188 isoform P01116-2 G12V): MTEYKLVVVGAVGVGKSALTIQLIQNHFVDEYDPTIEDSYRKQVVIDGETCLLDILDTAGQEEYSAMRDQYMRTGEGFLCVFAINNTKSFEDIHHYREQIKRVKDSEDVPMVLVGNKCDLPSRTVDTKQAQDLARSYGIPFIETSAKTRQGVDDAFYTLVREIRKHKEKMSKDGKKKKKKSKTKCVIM

KRAS G12S = molecular target: T4, KRAS G12S (Homo sapiens, UniProt P01116, G12S); assay: HTRF assay, KRAS G12S interaction with SOS1; type: biochemical; conditions: bins <500 nM / 500 nM to 1000 nM, read-out: Inhibition of KRAS G12S (IC50)
T4 construct: made in house; host or cells: E. coli, e.g. BL21 (DE3)
T4 sequence (P01116 1-188 isoform P01116-2 G12S): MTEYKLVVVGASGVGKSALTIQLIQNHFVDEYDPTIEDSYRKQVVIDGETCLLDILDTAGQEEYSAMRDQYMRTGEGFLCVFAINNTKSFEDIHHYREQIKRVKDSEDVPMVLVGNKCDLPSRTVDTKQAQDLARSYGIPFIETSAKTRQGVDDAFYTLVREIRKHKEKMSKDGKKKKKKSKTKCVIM

MiaPaca2 cells = assay: Ras cellular assay, growth of cells with K-Ras G12C mutation; type: cell-based; conditions: Homo sapiens, MIA PaCa-2; cell proliferation assay; bins ≤500 nM / >500 nM; read-out: Inhibition of MiaPaca2 Cells (IC50)
Outline: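 MIA PaCa-2 cells (K-Ras G12C, about 125-150 cells/well) grown in 0.25% soft agar over a 0.6% agar base, compound added on day 2 at 0.3% final DMSO. Growth read on day 10 by Cell Titer 96 AQueous absorbance (490 nm, reference 660 nm) against time-zero wells; IC50 from four-parameter fit.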

T1 sequence (P01116 1-188 isoform P01116-2 G12D): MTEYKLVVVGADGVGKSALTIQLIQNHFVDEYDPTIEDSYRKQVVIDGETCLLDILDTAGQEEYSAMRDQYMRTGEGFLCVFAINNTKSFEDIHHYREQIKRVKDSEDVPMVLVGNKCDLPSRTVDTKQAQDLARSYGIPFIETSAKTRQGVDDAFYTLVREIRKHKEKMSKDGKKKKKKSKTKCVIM

| SMILES | IC50 (KRAS G12D) | IC50 (KRAS WT) | IC50 (KRAS G12V) | IC50 (KRAS G12S) | IC50 (MiaPaca2 cells) |
| --- | --- | --- | --- | --- | --- |
| CCN(c1nc(OC[C@@]23CCCN2C[C@H](F)C3)nc2c(F)c(-c3ccc(F)c4sc(N)c(C#N)c34)c(Cl)cc12)[C@@H]1CCN(C(=O)n2cnc(F)n2)[C@@H]1C [Compound 115, 2-amino-4-(6-chloro-4-(ethyl((2R,3R)-1-(3-fluoro-1H-1,2,4-triazole-1-carbonyl)-2-methylpyrrolidin-3-yl)amino)-8-fluoro-2-(((2R,7aS)-2-fluorotetrahydro-1H-pyrrolizin-7a(5H)-yl)methoxy)quinazolin-7-yl)-7-fluorobenzo[b]thiophene-3-carbonitrile] | < 500 nM | < 500 nM | < 500 nM | < 500 nM | ≤ 500 nM |
| Cc1nc(C#N)cn1C(=O)N1CC2CCN(c3nc(OC[C@@]45CCCN4C[C@H](F)C5)nc4c(F)c(-c5ccc(F)c6sc(N)c(C#N)c56)c(Cl)cc34)C2C1 (stereo partly drawn) [Compound 192, 1-(1-(7-(2-amino-3-cyano-7-fluorobenzo[b]thiophen-4-yl)-6-chloro-8-fluoro-2-(((2R,7aS)-2-fluorotetrahydro-1H-pyrrolizin-7a(5H)-yl)methoxy)quinazolin-4-yl)octahydropyrrolo[3,4-b]pyrrole-5-carbonyl)-2-methyl-1H-imidazole-4-carbonitrile] | < 500 nM | < 500 nM | < 500 nM | < 500 nM | ≤ 500 nM |
| CCN(c1nc(OC[C@@]23CCCN2C[C@H](F)C3)nc2c(F)c(-c3ccc(F)c4sc(N)c(C#N)c34)c(Cl)cc12)[C@@H]1CCN(C(=O)n2cnc(C)c2C)[C@@H]1C [Compound 145, 2-amino-4-(6-chloro-4-(((2R,3R)-1-(4,5-dimethyl-1H-imidazole-1-carbonyl)-2-methylpyrrolidin-3-yl)(ethyl)amino)-8-fluoro-2-(((2R,7aS)-2-fluorotetrahydro-1H-pyrrolizin-7a(5H)-yl)methoxy)quinazolin-7-yl)-7-fluorobenzo[b]thiophene-3-carbonitrile] | < 500 nM | < 500 nM | < 500 nM | < 500 nM | ≤ 500 nM |
| CCN(c1nc(OC[C@@]23CCCN2C[C@H](F)C3)nc2c(F)c(-c3ccc(F)c4sc(N)c(C#N)c34)c(C3CC3)cc12)[C@@H]1CCN(C(=O)n2ccnc2C)[C@@H]1C [Compound 171, 2-amino-4-(6-cyclopropyl-4-(ethyl((2R,3R)-2-methyl-1-(2-methyl-1H-imidazole-1-carbonyl)pyrrolidin-3-yl)amino)-8-fluoro-2-(((2R,7aS)-2-fluorotetrahydro-1H-pyrrolizin-7a(5H)-yl)methoxy)quinazolin-7-yl)-7-fluorobenzo[b]thiophene-3-carbonitrile] | < 500 nM | < 500 nM | < 500 nM | < 500 nM | ≤ 500 nM |
| CN(c1nc(OC[C@@]23CCCN2C[C@H](F)C3)nc2c(F)c(-c3ccc(F)c4sc(N)c(C#N)c34)c(Cl)cc12)[C@@H]1CCN(C(=O)n2ccnc2)C1 [Compound 118, 4-(4-(((R)-1-(1H-imidazole-1-carbonyl)pyrrolidin-3-yl)(methyl)amino)-6-chloro-8-fluoro-2-(((2R,7aS)-2-fluorotetrahydro-1H-pyrrolizin-7a(5H)-yl)methoxy)quinazolin-7-yl)-2-amino-7-fluorobenzo[b]thiophene-3-carbonitrile] | < 500 nM | < 500 nM | < 500 nM | < 500 nM | ≤ 500 nM |
| CCN(c1nc(OC[C@@]23CCCN2C[C@H](F)C3)nc2c(F)c(-c3ccc(F)c4sc(N)c(C#N)c34)c(Cl)cc12)[C@@H]1CCN(C(=O)n2cc(C#N)nc2C)[C@@H]1C [Compound 102, 1-((2R,3R)-3-((7-(2-amino-3-cyano-7-fluorobenzo[b]thiophen-4-yl)-6-chloro-8-fluoro-2-(((2R,7aS)-2-fluorotetrahydro-1H-pyrrolizin-7a(5H)-yl)methoxy)quinazolin-4-yl)(ethyl)amino)-2-methylpyrrolidine-1-carbonyl)-2-methyl-1H-imidazole-4-carbonitrile] | < 500 nM | < 500 nM | < 500 nM | < 500 nM | ≤ 500 nM |
| Cc1cn(C(=O)N2CC[C@@]23CCN(c2nc(OC[C@@]45CCCN4C[C@H](F)C5)nc4c(F)c(-c5ccc(F)c6sc(N)c(C#N)c56)c(Cl)cc24)C3)cn1 (atropisomer, axis not shown; (aS)) [Compound 107, (R)-2-amino-4-(6-chloro-8-fluoro-2-(((2R,7aS)-2-fluorotetrahydro-1H-pyrrolizin-7a(5H)-yl)methoxy)-4-((R)-1-(4-methyl-1H-imidazole-1-carbonyl)-1,6-diazaspiro[3.4]octan-6-yl)quinazolin-7-yl)-7-fluorobenzo[b]thiophene-3-carbonitrile] | < 500 nM | < 500 nM | < 500 nM | < 500 nM | ≤ 500 nM |
| CC[C@H]1N(C(=O)n2cc(C#N)nc2C)C[C@]12CCCCN(c1nc(OC[C@@]34CCCN3C[C@H](F)C4)nc3c(F)c(-c4ccc(F)c5sc(N)c(C#N)c45)c(Cl)cc13)C2 (atropisomer, axis not shown; (aS)) [Compound 117, 1-((1R,4R)-6-(7-((R)-2-amino-3-cyano-7-fluorobenzo[b]thiophen-4-yl)-6-chloro-8-fluoro-2-(((2R,7aS)-2-fluorotetrahydro-1H-pyrrolizin-7a(5H)-yl)methoxy)quinazolin-4-yl)-1-ethyl-2,6-diazaspiro[3.6]decane-2-carbonyl)-2-methyl-1H-imidazole-4-carbonitrile] | < 500 nM | < 500 nM | < 500 nM | < 500 nM | ≤ 500 nM |
| Cc1nc(C)n(C(=O)N2CC[C@@H](N(C)c3nc(OC[C@@]45CCCN4C[C@H](F)C5)nc4c(F)c(-c5ccc(F)c6sc(N)c(C#N)c56)c(Cl)cc34)[C@H]2C)c1C [Compound 127, 2-amino-4-(6-chloro-8-fluoro-2-(((2R,7aS)-2-fluorotetrahydro-1H-pyrrolizin-7a(5H)-yl)methoxy)-4-(methyl((2R,3R)-2-methyl-1-(2,4,5-trimethyl-1H-imidazole-1-carbonyl)pyrrolidin-3-yl)amino)quinazolin-7-yl)-7-fluorobenzo[b]thiophene-3-carbonitrile] | < 500 nM | < 500 nM | < 500 nM | < 500 nM | ≤ 500 nM |

The remaining lines, values ahead:

| IC50 (KRAS G12D) | IC50 (KRAS WT) | IC50 (KRAS G12V) | IC50 (KRAS G12S) | IC50 (MiaPaca2 cells) | SMILES |
| --- | --- | --- | --- | --- | --- |
| < 500 nM | < 500 nM | < 500 nM | < 500 nM | ≤ 500 nM | CCN(c1nc(OC[C@@]23CCCN2C[C@@]2(CC2(F)F)C3)nc2c(F)c(-c3ccc(F)c4sc(N)c(C#N)c34)c(C(F)(F)F)cc12)[C@@H]1CCN(C(=O)n2cnc(F)n2)[C@@H]1C [Compound 212, 2-amino-4-(2-(((1S,7a′S)-2,2-difluorodihydro-1′H,3′H-spiro[cyclopropane-1,2′-pyrrolizin]-7a′(5′H)-yl)methoxy)-4-(ethyl((2R,3R)-1-(3-fluoro-1H-1,2,4-triazole-1-carbonyl)-2-methylpyrrolidin-3-yl)amino)-8-fluoro-6-(trifluoromethyl)quinazolin-7-yl)-7-fluorobenzo[b]thiophene-3-carbonitrile] |
| < 500 nM | < 500 nM | < 500 nM | < 500 nM | ≤ 500 nM | CCN(c1nc(OC[C@@]23CCCN2C[C@H](F)C3)nc2c(F)c(-c3cccc4sc(N)c(C#N)c34)c(Cl)cc12)[C@@H]1CCN(C(=O)n2cc(C)nc2C)[C@@H]1C [Compound 195, 2-amino-4-(6-chloro-4-(((2R,3R)-1-(2,4-dimethyl-1H-imidazole-1-carbonyl)-2-methylpyrrolidin-3-yl)(ethyl)amino)-8-fluoro-2-(((2R,7aS)-2-fluorotetrahydro-1H-pyrrolizin-7a(5H)-yl)methoxy)quinazolin-7-yl)benzo[b]thiophene-3-carbonitrile] |
| < 500 nM | < 500 nM | < 500 nM | < 500 nM | ≤ 500 nM | Cc1cn(C(=O)N2C[C@]3(CC[C@H](C)N(c4nc(OC[C@@]56CCCN5C[C@H](F)C6)nc5c(F)c(-c6ccc(F)c7sc(N)c(C#N)c67)c(Cl)cc45)C3)[C@H]2C2(C)CC2)cn1 [Compound 210, 2-amino-4-(6-chloro-8-fluoro-2-(((2R,7aS)-2-fluorotetrahydro-1H-pyrrolizin-7a(5H)-yl)methoxy)-4-((1R,4R,7S)-7-methyl-2-(4-methyl-1H-imidazole-1-carbonyl)-1-(1-methylcyclopropyl)-2,6-diazaspiro[3.5]nonan-6-yl)quinazolin-7-yl)-7-fluorobenzo[b]thiophene-3-carbonitrile] |
| < 500 nM | < 500 nM | < 500 nM | < 500 nM | ≤ 500 nM | C[C@@H]1[C@H](N(C)c2nc(OC[C@@]34CCCN3C[C@H](F)C4)nc3c(F)c(-c4ccc(F)c5sc(N)c(C#N)c45)c(Cl)cc23)CCN1C(=O)n1ccnc1C(F)(F)F [Compound 194, 2-amino-4-(6-chloro-8-fluoro-2-(((2R,7aS)-2-fluorotetrahydro-1H-pyrrolizin-7a(5H)-yl)methoxy)-4-(methyl((2R,3R)-2-methyl-1-(2-(trifluoromethyl)-1H-imidazole-1-carbonyl)pyrrolidin-3-yl)amino)quinazolin-7-yl)-7-fluorobenzo[b]thiophene-3-carbonitrile] |
